# Active and inactive are the calls of the source. The rule behind the calls is not given here.
# Experiments:
# [1] = biological target: Programmed cell death protein 1/Programmed cell death 1 ligand 1 (Homo sapiens, UniProt Q9NZQ7); assay: Inhibition of interaction of Fc(IgG1)-Avi)-(Biotin)-fused human PDL1 (19 to 239 residues)/Eu-labeled human PD-1 (25 to 167 residues) expressed in HEK293 cells pretreated with PDL1 for 15 mins followed by PD-1 addition and measured after 90 mins by TR-FRET assay; assay type: cell-based
# Programmed cell death protein 1/Programmed cell death 1 ligand 1, sequence (Q15116 whole entry, the tested form may be a part): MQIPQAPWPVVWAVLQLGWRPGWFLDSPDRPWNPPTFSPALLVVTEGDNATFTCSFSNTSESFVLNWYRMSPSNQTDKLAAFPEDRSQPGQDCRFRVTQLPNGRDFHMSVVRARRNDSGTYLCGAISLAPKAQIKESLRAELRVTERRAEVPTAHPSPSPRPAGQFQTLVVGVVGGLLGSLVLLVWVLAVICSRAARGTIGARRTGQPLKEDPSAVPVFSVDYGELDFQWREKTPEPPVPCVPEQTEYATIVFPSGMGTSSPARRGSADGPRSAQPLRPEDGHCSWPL
# Programmed cell death protein 1/Programmed cell death 1 ligand 1, sequence (Q9NZQ7 whole entry, the tested form may be a part): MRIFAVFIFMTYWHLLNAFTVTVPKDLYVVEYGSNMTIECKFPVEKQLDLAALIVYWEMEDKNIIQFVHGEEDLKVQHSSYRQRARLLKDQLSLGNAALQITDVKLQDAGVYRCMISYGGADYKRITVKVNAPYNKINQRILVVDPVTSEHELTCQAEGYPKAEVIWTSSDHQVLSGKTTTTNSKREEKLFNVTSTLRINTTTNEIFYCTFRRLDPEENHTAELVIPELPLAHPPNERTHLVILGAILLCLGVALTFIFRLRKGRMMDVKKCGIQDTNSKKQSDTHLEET
# NCM460 = assay: Cytotoxicity against human NCM460 cells assessed as cell viability at 0.625 to 10 uM incubated for 24 hrs by CCK8 assay; assay type: toxicity, cell-based; conditions: ncm460, 24 h, dose 0.625-10 µM
# [2] = biological target: T1, Programmed cell death 1 ligand 1 (Homo sapiens, UniProt Q9NZQ7); assay: Binding affinity to RED-NHS dye labeled human PDL1 incubated for 10 mins away from light by microscale thermophoresis analysis
# T1 sequence (Q9NZQ7 whole entry): as the sequence (Q9NZQ7 whole entry, the tested form may be a part) above
# [3] = biological target: Programmed cell death 1 ligand 1 (Mus musculus, UniProt Q9EP73); assay: Binding affinity to RED-NHS dye labeled mouse PDL1 incubated for 10 mins away from light by microscale thermophoresis analysis
# Programmed cell death 1 ligand 1 (Mus musculus, UniProt Q9EP73), sequence (Q9EP73 whole entry): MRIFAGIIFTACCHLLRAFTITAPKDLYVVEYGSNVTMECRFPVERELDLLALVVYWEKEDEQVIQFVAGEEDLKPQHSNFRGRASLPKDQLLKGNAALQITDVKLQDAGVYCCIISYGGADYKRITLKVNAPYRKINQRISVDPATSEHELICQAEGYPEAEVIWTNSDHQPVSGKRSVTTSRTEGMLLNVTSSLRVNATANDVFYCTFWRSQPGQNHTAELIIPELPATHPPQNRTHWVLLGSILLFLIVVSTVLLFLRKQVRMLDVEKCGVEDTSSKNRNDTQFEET
# [4] = biological target: T1, Programmed cell death 1 ligand 1; assay: Inhibition of PDL1 (unknown origin) assessed as induction of PDL1 dimerization at protein to compound concentration ratio of 1:2 incubated for overnight by SEC analysis
# [5] = biological target: T1, Programmed cell death 1 ligand 1; assay: Inhibition of PDL1 in human RKO cells assessed as […] PDL1 internalization into cytosol at 2 uM by immunofluorescence assay; assay type: subcellular; conditions: time 2-6 hrs, TDE = time-dependent effect
# [6] = biological target: T1, Programmed cell death 1 ligand 1; assay: Inhibition of PDL1 in human RKO cells assessed as […] PDL1 internalization into cytosol incubated for 12 hrs by immunofluorescence assay; assay type: subcellular; conditions: dose 0.5-2 µM
# [7] = biological target: T1, Programmed cell death 1 ligand 1; assay: Inhibition of human recombinant PDL1 expressed in HEK293 cells assessed as restoration of Jurkat T cell activity by measuring increase in IFNgamma secretion at 1 uM incubated for 24 hrs by ELISA; assay type: cell-based; design: Activity: scale not given: the % may be the effect or the level left
# L02 = assay: Cytotoxicity against human L02 cells assessed as cell viability at 0.625 to 10 uM incubated for 24 hrs by CCK8 assay; assay type: toxicity, cell-based; conditions: l02, 24 h, dose 0.625-10 µM
# [8] = biological target: T1, Programmed cell death 1 ligand 1; assay: Inhibition of human recombinant PDL1 expressed in HEK293 cells assessed as restoration of Jurkat T cell activity by measuring increase in IL-2 secretion incubated for 24 hrs by ELISA; assay type: cell-based; conditions: dose 0.3125-2.5 µM
# [9] = biological target: T1, Programmed cell death 1 ligand 1; assay: Inhibition of human recombinant PDL1 expressed in HEK293 cells assessed as restoration of Jurkat T cell activity by measuring increase in IL-2 secretion at 2.5 uM incubated for 24 hrs in presence of PD-L1v242 by ELISA; assay type: cell-based
# MDA-MB-231 = assay: Antitumor activity against human MDA-MB-231 cells cocultured with CD3/CD28/CD2 T cell activator stimulated human PBMC cells assessed as increase in tumor cell viability incubated for 12 hrs by LDH assay; conditions: MDA-MB-231, 12 h
# [10] = biological target: T1, Programmed cell death 1 ligand 1; assay: Inhibition of PDL1 in human MDA-MB-231 cells assessed as induction of PDL1 degradation at 1 to 5 uM incubated for 24 hrs by western blot analysis; assay type: cell-based; conditions: dose 1-5 µM
# [11] = AUC(0 to t) in Sprague-Dawley rat at 5 mg/kg, iv by LC-MS/MS analysis; assay type: ADME, organism-based; design: dose 5 mg/kg, route iv; conditions: in vivo
# [12] = Cmax in Sprague-Dawley rat at 5 mg/kg, iv by LC-MS/MS analysis; assay type: ADME, organism-based; design: dose 5 mg/kg, route iv; conditions: in vivo
# [13] = Tmax in Sprague-Dawley rat at 5 mg/kg, iv by LC-MS/MS analysis; assay type: ADME, organism-based; conditions: in vivo
# [14] = Half life in Sprague-Dawley rat at 5 mg/kg, iv by LC-MS/MS analysis; assay type: ADME, organism-based; conditions: in vivo
# [15] = AUC(0 to t) in Sprague-Dawley rat at 25 mg/kg, po by LC-MS/MS analysis; assay type: ADME, organism-based; design: dose 25 mg/kg, route po; conditions: in vivo
# [16] = Cmax in Sprague-Dawley rat at 25 mg/kg, po by LC-MS/MS analysis; assay type: ADME, organism-based; design: dose 25 mg/kg, route po; conditions: in vivo
# [17] = Tmax in Sprague-Dawley rat at 25 mg/kg, po by LC-MS/MS analysis; assay type: ADME, organism-based; conditions: in vivo
# [18] = Half life in Sprague-Dawley rat at 25 mg/kg, po by LC-MS/MS analysis; assay type: ADME, organism-based; conditions: in vivo
# [19] = Oral bioavailability in Sprague-Dawley rat at 25 mg/kg by LC-MS/MS analysis; assay type: ADME, organism-based; conditions: in vivo
# CT26 [20] = assay: Antitumor activity against mouse CT26 cells xenografted in BALB/c mouse assessed as inhibition of tumor growth administered ip qd for 2 weeks; assay type: functional, organism-based; conditions: dose 10-20 mg/kg
# [21] = Toxicity against BALB/c mouse xenografted with mouse CT26 cells assessed as body weight loss at 10 to 20 mg/kg, ip qd for 2 weeks; assay type: organism-based; conditions: in vivo, 336 h, dose 10-20 mg/kg
# [22] = Toxicity against BALB/c mouse xenografted with mouse CT26 cells assessed as mortality at 10 to 20 mg/kg, ip qd for 2 weeks; assay type: organism-based; conditions: in vivo, 336 h, dose 10-20 mg/kg
# CT26 [23] = assay: Antitumor activity against mouse CT26 cells xenografted in BALB/c mouse assessed as decrease in tumor weight at 10 mg/kg, ip qd for 2 weeks; assay type: functional; conditions: CT26, 336 h
# CT26 [24] = assay: Antitumor activity against mouse CT26 cells xenografted in BALB/c mouse assessed as decrease in tumor weight at 20 mg/kg, ip qd for 2 weeks; assay type: functional; conditions: CT26, 336 h
# CT26 [25] = assay: Antitumor immunity against mouse CT26 cells xenografted in BALB/c mouse assessed as increase in infiltration of CD8+ cells in tumor administered ip qd for 2 weeks by immunohistochemical staining based analysis; assay type: functional, organism-based; conditions: dose 10-20 mg/kg
# CT26 [26] = assay: Antitumor activity against mouse CT26 cells xenografted in BALB/c mouse assessed as tumor shrinkage and reduction of tumor growth at 20 mg/kg, ip qd for 2 weeks by Hematoxylin-eosin staining based analysis; assay type: functional, organism-based
# CT26 [27] = assay: In vivo inhibition of PDL1 in BALB/c mouse xenografted with mouse CT26 cells assessed as induction of PDL1 degradation by measuring decrease in PDL1 protein expression in tumor at 10 to 20 mg/kg, ip qd for 2 weeks by immunohistochemical staining based analysis; assay type: functional, organism-based; conditions: dose 10-20 mg/kg
structure (smiles),measurement,setting,value
Cc1c(-c2ccccc2)cccc1-c1nnc(Nc2cccc(CNCCO)c2)o1,IC50,[1],27.8 nM
COc1nc(O[C@H]2CCc3c(-c4cccc(C(=O)Nc5ccc(CNC[C@@H]6CCC(=O)N6)cn5)c4Cl)cccc32)c(Cl)cc1CNC[C@@H]1CCC(=O)N1,Activity,NCM460,Non-Toxic
same,IC50,[1],1.8 nM
same,Kd,[2],24 nM
same,Kd,[3],790 nM
same,inhibition,[4],Active
same,inhibition,[5],Tde
same,inhibition,[6],Dose-Dependent Effect
same,Activity,[7],80%
same,Activity,L02,Non-Toxic
same,inhibition,[8],Dose-Dependent Effect
same,inhibition,[9],Active
same,EC50,MDA-MB-231,~800 nM
same,inhibition,[10],Active
same,AUC(0-t),[11],890 ng·h/mL
same,Cmax,[12],2370 ng/mL
same,Tmax,[13],1.8 min
same,half-life,[14],5.3 h
same,AUC(0-t),[15],73.1 ng·h/mL
same,Cmax,[16],22.6 ng/mL
same,Tmax,[17],0.3 h
same,half-life,[18],5.8 h
same,bioavailability,[19],1.6%
same,Activity,CT26 [20],Dose-Dependent Effect
same,Activity,[21],Non-Toxic
same,Activity,[22],Non-Toxic
same,inhibition in vivo at 10 mg/kg,CT26 [23],37%
same,inhibition in vivo at 20 mg/kg,CT26 [24],51%
same,Activity,CT26 [25],Dose-Dependent Effect
same,Activity,CT26 [26],Active
same,inhibition,CT26 [27],Active
COc1nc(-c2cccc(-c3cccc(-c4nnc(Nc5cccc(CNCCO)c5)o4)c3C)c2C)ccc1CNCCNC(C)=O,IC50,[1],23.5 nM
same,Activity,[7],66%
Cc1c(-c2ccc(CNCCO)cc2)cccc1-c1cccc(-c2nnc(Nc3cccc(CNCCO)c3)o2)c1C,IC50,[1],37.2 nM
COc1nc(O[C@H]2CCc3c(-c4cccc(C(=O)Nc5ccc(CN6CCC7(CC6)CNC(=O)C7)cn5)c4Cl)cccc32)c(Cl)cc1CN1CCC2(CC1)CNC(=O)C2,IC50,[1],17.2 nM
COc1nc(O[C@H]2CCc3c(-c4cccc(C(=O)Nc5ccc(CN6CC(O)C6)cn5)c4Cl)cccc32)c(Cl)cc1CN1CC(O)C1,IC50,[1],6.3 nM
COc1nc(NC(=O)c2cccc(-c3cccc4c3CC[C@@H]4Oc3nc(OC)c(CNCCNC(C)=O)cc3Cl)c2Cl)ccc1CNCCNC(C)=O,IC50,[1],22.1 nM
Cc1c(-c2nnc(Nc3ccc(CN4CC[C@@H](O)C4)cc3)o2)cccc1-c1cccc(-c2nnc(Nc3cccc(CN4CC[C@@H](O)C4)c3)o2)c1C,IC50,[1],1180 nM
CC(=O)NCCNCc1ccc(NC(=O)c2cccc(-c3cccc(-c4nnc(Nc5cccc(CNCCO)c5)o4)c3C)c2C)nc1,IC50,[1],42 nM
Cc1c(C(=O)Nc2ccc(CNCCO)cc2)cccc1-c1cccc(-c2nnc(Nc3cccc(CNCCO)c3)o2)c1C,IC50,[1],127 nM
CC(=O)NCCNCc1cccc(Nc2nnc(-c3cccc(-c4cccc(-c5nnc(Nc6cccc(CNCCNC(C)=O)c6)o5)c4C)c3C)o2)c1,IC50,[1],58.8 nM
Cc1c(-c2cccc(-c3nnc(Nc4cccc(CNCCO)c4)o3)c2)cccc1-c1nnc(Nc2cccc(CN3CC[C@@H](O)C3)c2)o1,IC50,[1],51.6 nM
COc1nc(O[C@H]2CCc3c(-c4cccc(C(=O)Nc5ccc(CNCCO)cn5)c4Cl)cccc32)c(Cl)cc1CNCCO,IC50,[1],4.3 nM
COc1nc(O[C@H]2CCc3c(-c4cccc(C(=O)Nc5ccc(CNCCO)c(F)n5)c4Cl)cccc32)c(Cl)cc1CNCCO,IC50,[1],16.1 nM
Cc1c(-c2cccc(-c3ccc(CNCCO)cc3)c2)cccc1-c1nnc(Nc2cccc(CNCCO)c2)o1,IC50,[1],42 nM

# Reference: ChEMBL document CHEMBL5376007, “Discovery of Novel PD-L1 Inhibitors That Induce the Dimerization, Internalization, and Degradation of PD-L1 Based on the Fragment Coupling Strategy” (J Med Chem, 2023)
